Measured values published in patent publication US8067532B2, “Modifications of peptide compositions to increase stability and delivery efficiency” (KAI Pharmaceuticals, Inc., priority 2007, dated 2011).
No end group written: not given here.

Assays:
[1] = In vitro biological stability of linear epsilon PKC inhibitors in human serum; type: in vitro ADME; settings: LC/MS; for stability in human serum (percent remaining over time): 100 μg/ml, room temperature
Experimental: The peptides were then analyzed by LC/MS.

[2] = Effect of D-peptides on plasma stability of KAI-9706; settings: All-L, scrambled or retro-inverso (R/I) carrier and cargo
Experimental: KAI-9706 was engineered with D-amino acids to determine their impact on peptide composition stability. Unmodified KAI-9706 was compared to a peptide composition with the same amino acid sequence, however the amino acids used were d-enantiomers instead of 1-amino acids. A retro-inverso version and a scrambled version of the peptide composition were also prepared.

brain tissue = assay: Stroke model, percent infarction; type: in vivo; settings: versus uncapped KAI-9706
Experimental: KAI-1455 was tested in a stroke model.

[3] = versus KAI-9706 and KAI-9803
[4] = Plasma stability of capped peptides (KAI-9706 modified step-wise at amino and carboxy termini); type: in vitro ADME, rat; settings: versus uncapped KAI-9706
Text: Plasma stability of capped peptides was compared.

cardiac tissue = assay: Langendorff assay, in vitro post-ischemia model (CK release); set-up: species or system rat; settings: versus the unmodified form
Experimental: The ability of the capped composition to inhibit ischemic damage in a rat heat model (Langendorff Assay) was evaluated versus the uncapped form.

[5] = versus KAI-9706 and KAI-9803; remark: listed apart in the source
[6] = versus KAI-9706 and KAI-9803; remark: listed apart in the source

EAVSLKPTGGYGRKKRRQRRR-NH2 [KP-1633]
stability in human serum (percent remaining over time) [1]: increased stability

CC[C@H](C)[C@H](NC(=O)[C@@H]1CCCN1C(=O)[C@H](C)NC(=O)[C@H](CC(=O)O)NC(=O)[C@H](Cc1c[nH]cn1)NC(=O)[C@@H](N)CSSC[C@H](N)C(=O)N[C@@H](Cc1ccc(O)cc1)C(=O)NCC(=O)N[C@@H](CCCNC(=N)N)C(=O)N[C@@H](CCCCN)C(=O)N[C@@H](CCCCN)C(=O)N[C@@H](CCCNC(=N)N)C(=O)N[C@@H](CCCNC(=N)N)C(=O)N[C@@H](CCC(N)=O)C(=O)N[C@@H](CCCNC(=N)N)C(=O)N[C@@H](CCCNC(=N)N)C(=O)N[C@@H](CCCNC(=N)N)C(=O)O)C(=O)NCC(=O)N[C@@H](Cc1ccc(O)cc1)C(=O)N[C@@H](CC(=O)O)C(=O)O [KAI-9706]
% parent remaining at 15 mins [2]: 1%

KP-1680: linear epsilon PKC inhibitor peptide shown in FIG. 16 (EAVSLKPTGGYGRKKRRQRRR)
degradation products / metabolized forms ([1]; serum): sequential cleavage of arginine residues from the C-terminus

Ac-EAVSLKPTGGYGRKKRRQRRR-NH2 [KP-1678]
stability in human serum (percent remaining over time) [1]: increased stability

CC[C@H](C)[C@H](NC(=O)[C@@H]1CCCN1C(=O)[C@H](C)NC(=O)[C@H](CC(=O)O)NC(=O)[C@H](Cc1c[nH]cn1)NC(=O)[C@@H](N)CSSC[C@H](NC(C)=O)C(=O)N[C@@H](Cc1ccc(O)cc1)C(=O)NCC(=O)N[C@@H](CCCNC(=N)N)C(=O)N[C@@H](CCCCN)C(=O)N[C@@H](CCCCN)C(=O)N[C@@H](CCCNC(=N)N)C(=O)N[C@@H](CCCNC(=N)N)C(=O)N[C@@H](CCC(N)=O)C(=O)N[C@@H](CCCNC(=N)N)C(=O)N[C@@H](CCCNC(=N)N)C(=O)N[C@@H](CCCNC(=N)N)C(N)=O)C(=O)NCC(=O)N[C@@H](Cc1ccc(O)cc1)C(=O)N[C@@H](CC(=O)O)C(=O)O [KAI-1455]
protection to brain tissue as judged by percent infract (brain tissue): increased protection to brain tissue
stability in human serum (percent intact over time) [3]: increased plasma stability
plasma half life [4]: increase the plasma half life
ability to inhibit ischemic damage (potency, CK release) (cardiac tissue): Maintains In Vitro Potency
stability in pig serum (percent intact over time) [5]: increased plasma stability
stability in rat serum (percent intact over time) [6]: increased plasma stability
